≈ marks a conversion by molar mass, not a printed value. Where only a bound is given, the exact number is not on record here.

For the first experiment, the system named is Bacillus subtilis. The experiment can be described thus: Antibacterial activity against penicillin-susceptible Bacillus subtilis ATCC9372 assessed as inhibition of bacterial growth incubated for 20 hrs by CLSI protocol based microdilution method. The class given is functional.
Consider `C=C1OC(=O)C(CNC(=O)c2ccc(C)cc2)=C1c1cccc(Br)c1`, for which the MIC (usually the smallest concentration in the dilution series that meets the test's criterion for growth inhibition) is above 512 µg/mL.
As for `C=C1OC(=O)C(CNC(=O)CCCCCCC)=C1c1ccc(F)cc1`, the minimal inhibitory concentration (MIC) is above 512 µg/mL.
Consider `C=C1OC(=O)C(CNC(=O)c2ccccc2F)=C1c1ccc(F)cc1`, for which the minimum inhibitory concentration (MIC) is above 512 µg/mL.
With `C=C1OC(=O)C(CNC(=O)c2ccc(C)cc2)=C1c1ccccc1Cl`, the MIC is above 512 µg/mL.
As to `C=C1OC(=O)C(CNC(=O)c2ccc(C)cc2)=C1c1ccc(-c2ccccc2)cc1`, the MIC was above 512 µg/mL.
On to `C=C1OC(=O)C(CNC(=O)c2ccc(C)cc2)=C1c1cccc(F)c1`, for which the MIC is above 512 µg/mL.
On to `C=C1OC(=O)C(CNC(=O)CCCCCCCCC)=C1c1ccc(F)cc1`, for which the MIC was above 512 µg/mL.
Take `C=C1C(c2ccc(F)cc2)=C(CNC(=O)c2ccc(C)cc2)C(=O)N1C1CCCC1`: the minimum inhibitory concentration (MIC) was above 512 µg/mL.

Another experiment deals with Bacillus pumilus. The experiment is described as follows: Antibacterial activity against penicillin-susceptible Bacillus pumilus CMCC63202 assessed as inhibition of bacterial growth incubated for 20 hrs by CLSI protocol based microdilution method. The experiment is classed as functional. (In general: Broth dilution looks for growth in wells or tubes with falling amounts of substance.)
For `C=C1OC(=O)C(CNC(=O)c2ccc(C)cc2)=C1c1cccc(Br)c1`, the minimal inhibitory concentration (MIC) was above 512 µg/mL.
Consider `C=C1OC(=O)C(CNC(=O)CCCCCCC)=C1c1ccc(F)cc1`, for which the minimal inhibitory concentration (MIC) is above 512 µg/mL.
For `C=C1OC(=O)C(CNC(=O)c2ccccc2F)=C1c1ccc(F)cc1`, the MIC is above 512 µg/mL.
In the case of `C=C1OC(=O)C(CNC(=O)c2ccc(C)cc2)=C1c1ccccc1Cl`, the MIC was above 512 µg/mL.
For `C=C1OC(=O)C(CNC(=O)c2ccc(C)cc2)=C1c1ccc(-c2ccccc2)cc1`, the MIC was above 512 µg/mL.
For `C=C1OC(=O)C(CNC(=O)c2ccc(C)cc2)=C1c1cccc(F)c1`, the MIC was above 512 µg/mL.
For `C=C1OC(=O)C(CNC(=O)CCCCCCCCC)=C1c1ccc(F)cc1`, the MIC was above 512 µg/mL.
Take `C=C1C(c2ccc(F)cc2)=C(CNC(=O)c2ccc(C)cc2)C(=O)N1C1CCCC1`: the MIC came out at 512 µg/mL (≈ 1270 µM).

The next experiment concerns Staphylococcus aureus. The experiment is described as follows: Antibacterial activity against erthromycin-susceptible Staphylococcus aureus ATCC25923 assessed as inhibition of bacterial growth incubated for 20 hrs by CLSI protocol based microdilution method. The experiment is classed as functional.
Turning to `C=C1OC(=O)C(CNC(=O)c2ccc(C)cc2)=C1c1cccc(Br)c1`, the minimum inhibitory concentration (MIC) was above 512 µg/mL.
As for `C=C1OC(=O)C(CNC(=O)CCCCCCC)=C1c1ccc(F)cc1`, the MIC was above 512 µg/mL.
On to `C=C1OC(=O)C(CNC(=O)c2ccccc2F)=C1c1ccc(F)cc1`, for which the minimal inhibitory concentration (MIC) is above 512 µg/mL.
Regarding `C=C1OC(=O)C(CNC(=O)c2ccc(C)cc2)=C1c1ccccc1Cl`, the minimal inhibitory concentration (MIC) was above 512 µg/mL.
Take `C=C1OC(=O)C(CNC(=O)c2ccc(C)cc2)=C1c1ccc(-c2ccccc2)cc1`: the minimal inhibitory concentration (MIC) is above 512 µg/mL.
The same measure, in the same setting: next, `C=C1OC(=O)C(CNC(=O)c2ccc(C)cc2)=C1c1cccc(F)c1`: above 512 µg/mL.
Take `C=C1OC(=O)C(CNC(=O)CCCCCCCCC)=C1c1ccc(F)cc1`: the MIC was above 512 µg/mL.
Same read-out and setting: the figure for `C=C1C(c2ccc(F)cc2)=C(CNC(=O)c2ccc(C)cc2)C(=O)N1C1CCCC1` is above 512 µg/mL.

A further experiment concerns Staphylococcus aureus. The experiment can be described thus: Antibacterial activity against methicillin-resistant Staphylococcus aureus ATCC43300 assessed as inhibition of bacterial growth incubated for 20 hrs by CLSI protocol based microdilution method. The class given is functional.
Take `C=C1OC(=O)C(CNC(=O)c2ccc(C)cc2)=C1c1cccc(Br)c1`: the minimum inhibitory concentration (MIC) is above 512 µg/mL.
For the molecule `C=C1OC(=O)C(CNC(=O)CCCCCCC)=C1c1ccc(F)cc1`, the MIC was above 512 µg/mL.
On the same count and under the same terms, the figure for `C=C1OC(=O)C(CNC(=O)c2ccccc2F)=C1c1ccc(F)cc1` is 128 µg/mL (≈ 375 µM).
Take `C=C1OC(=O)C(CNC(=O)c2ccc(C)cc2)=C1c1ccccc1Cl`: the MIC was above 512 µg/mL.
As for `C=C1OC(=O)C(CNC(=O)c2ccc(C)cc2)=C1c1ccc(-c2ccccc2)cc1`, the MIC was above 512 µg/mL.
With `C=C1OC(=O)C(CNC(=O)c2ccc(C)cc2)=C1c1cccc(F)c1`, the MIC is above 512 µg/mL.
On to `C=C1OC(=O)C(CNC(=O)CCCCCCCCC)=C1c1ccc(F)cc1`, for which the MIC stood at 512 µg/mL (≈ 1370 µM).
Still for that read-out and setting: the figure for `C=C1C(c2ccc(F)cc2)=C(CNC(=O)c2ccc(C)cc2)C(=O)N1C1CCCC1` is 512 µg/mL (≈ 1270 µM).

The next experiment deals with Pseudomonas aeruginosa. The experiment can be described thus: Antibacterial activity against penicillin-susceptible Pseudomonas aeruginosa ATCC27853 assessed as inhibition of bacterial growth incubated for 20 hrs by CLSI protocol based microdilution method. The experiment is classed as functional.
Regarding `C=C1OC(=O)C(CNC(=O)c2ccc(C)cc2)=C1c1cccc(Br)c1`, the minimum inhibitory concentration (MIC) is above 512 µg/mL.
As for `C=C1OC(=O)C(CNC(=O)CCCCCCC)=C1c1ccc(F)cc1`, the MIC was above 512 µg/mL.
Consider `C=C1OC(=O)C(CNC(=O)c2ccccc2F)=C1c1ccc(F)cc1`, for which the minimum inhibitory concentration (MIC) is above 512 µg/mL.
`C=C1OC(=O)C(CNC(=O)c2ccc(C)cc2)=C1c1ccccc1Cl`: the MIC was above 512 µg/mL.
Still for that read-out and setting: the figure for `C=C1OC(=O)C(CNC(=O)c2ccc(C)cc2)=C1c1ccc(-c2ccccc2)cc1` is above 512 µg/mL.
In the case of `C=C1OC(=O)C(CNC(=O)c2ccc(C)cc2)=C1c1cccc(F)c1`, the MIC is above 512 µg/mL.
For the molecule `C=C1OC(=O)C(CNC(=O)CCCCCCCCC)=C1c1ccc(F)cc1`, the minimum inhibitory concentration (MIC) is above 512 µg/mL.
On the same count and under the same terms, the figure for `C=C1C(c2ccc(F)cc2)=C(CNC(=O)c2ccc(C)cc2)C(=O)N1C1CCCC1` is above 512 µg/mL.

The subject of a further experiment is Escherichia coli. The experiment is described as follows: Antibacterial activity against penicillin-susceptible Escherichia coli ATCC25922 assessed as inhibition of bacterial growth incubated for 20 hrs by CLSI protocol based microdilution method. The class given is functional.
In the case of `C=C1OC(=O)C(CNC(=O)c2ccc(C)cc2)=C1c1cccc(Br)c1`, the MIC was above 512 µg/mL.
With `C=C1OC(=O)C(CNC(=O)CCCCCCC)=C1c1ccc(F)cc1`, the MIC is above 512 µg/mL.
In the case of `C=C1OC(=O)C(CNC(=O)c2ccccc2F)=C1c1ccc(F)cc1`, the minimum inhibitory concentration (MIC) was above 512 µg/mL.
Consider `C=C1OC(=O)C(CNC(=O)c2ccc(C)cc2)=C1c1ccccc1Cl`, for which the minimum inhibitory concentration (MIC) was above 512 µg/mL.
In the case of `C=C1OC(=O)C(CNC(=O)c2ccc(C)cc2)=C1c1ccc(-c2ccccc2)cc1`, the MIC was above 512 µg/mL.
As for `C=C1OC(=O)C(CNC(=O)c2ccc(C)cc2)=C1c1cccc(F)c1`, the minimum inhibitory concentration (MIC) was above 512 µg/mL.
With `C=C1OC(=O)C(CNC(=O)CCCCCCCCC)=C1c1ccc(F)cc1`, the MIC is above 512 µg/mL.
Turning to `C=C1C(c2ccc(F)cc2)=C(CNC(=O)c2ccc(C)cc2)C(=O)N1C1CCCC1`, the MIC is above 512 µg/mL.

The subject of the next experiment is Pseudomonas aeruginosa. The experiment is described as follows: Antibacterial activity against wild type Pseudomonas aeruginosa […] CGMCC1.12483 assessed as inhibition of bacterial growth incubated for 20 hrs by CLSI protocol based microdilution method. The experiment is classed as functional.
On to `C=C1OC(=O)C(CNC(=O)c2ccc(C)cc2)=C1c1cccc(Br)c1`, for which the MIC is above 512 µg/mL.
Consider `C=C1OC(=O)C(CNC(=O)CCCCCCC)=C1c1ccc(F)cc1`, for which the minimal inhibitory concentration (MIC) was above 512 µg/mL.
The same measure, in the same setting: the figure for `C=C1OC(=O)C(CNC(=O)c2ccccc2F)=C1c1ccc(F)cc1` is above 512 µg/mL; for `C=C1OC(=O)C(CNC(=O)c2ccc(C)cc2)=C1c1ccccc1Cl` it is above 512 µg/mL; for `C=C1OC(=O)C(CNC(=O)c2ccc(C)cc2)=C1c1ccc(-c2ccccc2)cc1` it is above 512 µg/mL.
As to `C=C1OC(=O)C(CNC(=O)c2ccc(C)cc2)=C1c1cccc(F)c1`, the MIC is above 512 µg/mL.
The same measure, in the same setting: next, `C=C1OC(=O)C(CNC(=O)CCCCCCCCC)=C1c1ccc(F)cc1`: above 512 µg/mL.
As for `C=C1C(c2ccc(F)cc2)=C(CNC(=O)c2ccc(C)cc2)C(=O)N1C1CCCC1`, the MIC is 512 µg/mL (≈ 1270 µM).

(Values after ChEMBL document CHEMBL5331108, “Design and Synthesis of 4-Fluorophenyl-5-methylene-2(5H)-furanone Derivatives as Potent Quorum Sensing Inhibitors” (J Med Chem, 2023).)
